Read-outs that look alike come from different tables or passages of the source.
Key:
[1] = tested on: HIV-1 IN mutant Y143R; assay: single-round infectivity assay, Y143R IN mutant; type: cell-based; conditions: for FC Y143R: fold change in EC50, IN mutant versus WT HIV-1
Description: (§1) Figure 2 Antiviral activities of the new compounds against RAL-resistant mutants. The EC50 values were determined using a vector that carries WT HIV-1 IN and the RAL-resistant mutants in a single round infection assay. […] Error bars represent the standard deviations of independent experiments, n = 4, performed in triplicate. The graph has a maximum value of 550 nM.
(§2) WT and mutant HIV-1 viral vectors were used in single-round infectivity assays to determine the antiviral potencies (EC50 values) of the compounds and the effects of the mutants on the EC50 values as previously described.[30],[54] Single round infectivity measurements were determined as done previously.[38]
(§3) The vector pNLNgoMIVR-ΔENV.LUC has been described previously.[26] To produce the new IN mutants used in this study, the IN open reading frame was removed from pNLNgoMIVR-ΔENV.LUC by digestion with KpnI and SalI, and the resulting fragment was inserted between the KpnI and SalI sites of pBluescript KS+. Using that construct as the wild-type template, we prepared the following HIV-1 IN mutants using the QuikChange II XL site directed mutagenesis kit (Agilent Technologies, Santa Clara, CA) protocol: N117A, N117H, P142A, P142H, P142S, Y143C, Y143H, S230R, R231G, and R231K. The following sense oligonucleotides were used with matching cognate antisense oligonucleotides (not shown) (Integrated DNA Technologies, Coralville, IA) in the mutagenesis: N117A, 5′-[…]-3′; N117H, 5′-[…]-3′; P142A, 5′-[…]-3′; P142H, 5′-[…]-3′; P142S, 5′-[…]-3′; Y143C, 5′- […]-3′; Y143H, 5′-[…]-3′; S230R, 5′- […]-3′; R231G, 5′-[…]-3′; R231K, 5′-[…]-3′.

[2] = tested on: HIV-1 IN mutant N155H; assay: single-round infectivity assay, N155H IN mutant; type: cell-based; conditions: for FC N155H: fold change in EC50, IN mutant versus WT HIV-1
Description: as §1, §2, §3

[3] = tested on: HIV-1 IN double mutant G140S/Q148H; assay: single-round infectivity assay, G140S/Q148H IN double mutant; type: cell-based; conditions: for FC G140S/Q148H: fold change in EC50, IN mutant versus WT HIV-1
Description: as §1, §2, §3

[4] = tested on: HIV-1 IN mutant N117A; assay: single-round infectivity assay, N117A IN mutant; type: cell-based; conditions: for EC50: Human immunodeficiency virus 1, read-out: EC50 values N117A; for FC N117A: fold change in EC50, IN mutant versus WT HIV-1
Description: (§4) The EC50 values were determined using a vector that carries the IN mutant in a single round infection assay. […] Error bars represent the standard deviations of independent experiments, n = 4, performed in triplicate.
as §2, §3

[5] = tested on: HIV-1 IN mutant N117H; assay: single-round infectivity assay, N117H IN mutant; type: cell-based; conditions: for EC50: Human immunodeficiency virus 1, read-out: EC50 values N117H; for FC N117H: fold change in EC50, IN mutant versus WT HIV-1
Description: as §4, §2, §3

[6] = tested on: HIV-1 IN mutant G118R; assay: single-round infectivity assay, G118R IN mutant; type: cell-based
Description: as §4, §2, §3

[7] = tested on: HIV-1 IN mutant S119R; assay: single-round infectivity assay, S119R IN mutant; type: cell-based; conditions: for EC50: Human immunodeficiency virus 1, read-out: EC50 values S119R; for FC S119R: fold change in EC50, IN mutant versus WT HIV-1
Description: as §4, §2, §3

[8] = tested on: HIV-1 IN mutant Y143C; assay: single-round infectivity assay, Y143C IN mutant; type: cell-based; conditions: for FC Y143C: fold change in EC50, IN mutant versus WT HIV-1
Description: (§5) Figure 4 Mutations in the β5-α3 loop affect the antiviral potencies of the new compounds. The EC50 values were determined using a vector that carries the IN mutant in a single round infection assay. […] Error bars represent the standard deviations of independent experiments, n = 4, performed in triplicate.
as §2, §3

[9] = tested on: HIV-1 IN mutant Y143H; assay: single-round infectivity assay, Y143H IN mutant; type: cell-based; conditions: for FC Y143H: fold change in EC50, IN mutant versus WT HIV-1
Description: as §5, §2, §3

[10] = tested on: HIV-1 IN mutant P142A; assay: single-round infectivity assay, P142A IN mutant; type: cell-based; conditions: for EC50: Human immunodeficiency virus 1, read-out: EC50 values P142A; for FC P142A: fold change in EC50, IN mutant versus WT HIV-1
Description: as §5, §2, §3

[11] = tested on: HIV-1 IN mutant P142H; assay: single-round infectivity assay, P142H IN mutant; type: cell-based; conditions: for EC50: Human immunodeficiency virus 1, read-out: EC50 values P142H
Description: as §4
Single round infectivity measurements were determined as done previously.[38]
as §3

[12] = tested on: HIV-1 IN mutant P142S; assay: single-round infectivity assay, P142S IN mutant; type: cell-based; conditions: for EC50: Human immunodeficiency virus 1, read-out: EC50 values P142S; for FC P142S: fold change in EC50, IN mutant versus WT HIV-1
Description: as §5, §2, §3

[13] = tested on: HIV-1 IN mutant S230R; assay: single-round infectivity assay, S230R IN mutant; type: cell-based; conditions: for EC50: Human immunodeficiency virus 1, read-out: EC50 values S230R; for FC S230R: fold change in EC50, IN mutant versus WT HIV-1
Description: (§6) Figure 5 Antiviral potencies of the new compounds against IN with mutations in the […]. The EC50 values were determined using a vector that carries the IN mutant in a single round infection assay. […] Error bars represent the standard deviations of independent experiments, n = 4, performed in triplicate.
as §2, §3

[14] = tested on: HIV-1 IN mutant R231G; assay: single-round infectivity assay, R231G IN mutant; type: cell-based; conditions: for EC50: Human immunodeficiency virus 1, read-out: EC50 values R231G; for FC R231G: fold change in EC50, IN mutant versus WT HIV-1
Description: as §6, §2, §3

[15] = tested on: HIV-1 IN mutant R231K; assay: single-round infectivity assay, R231K IN mutant; type: cell-based
Description: as §6, §2, §3

[16] = tested on: WT HIV-1; conditions: vector carrying WT HIV-1 IN, single round infection; previously reported; cited from earlier work
[17] = tested on: HIV-1 IN mutant Y143R; conditions: single round infection; previously reported; cited from earlier work
[18] = tested on: HIV-1 IN mutant N155H; conditions: single round infection; previously reported; cited from earlier work
[19] = tested on: HIV-1 IN double mutant G140S/Q148H; conditions: single round infection; previously reported; cited from earlier work
[20] = tested on: HIV-1 IN mutant G118R; conditions: single round infection; previously shown; cited from earlier work
[21] = Human immunodeficiency virus 1, read-out: EC50 values Y143H, single round infection, n = 4
[22] = fold change in EC50, IN mutant versus WT HIV-1
[23] = Human immunodeficiency virus 1, read-out: EC50 values R231K, single round infection, n = 4

## COC(=O)CNc1c(C(=O)NCc2ccc(F)cc2F)c(=O)n(O)c2ncccc12 [5′g]
[1]; EC50 compound / EC50 DTG
  ratio of the EC50s (our compound relative to DTG) against Y143R: 1.1
[1]
  FC Y143R: 1.2
[2]; EC50 compound / EC50 DTG
  ratio of the EC50s (our compound relative to DTG) against N155H: 5.3
[2]
  FC N155H: 5.0
[3]; EC50 compound / EC50 DTG
  ratio of the EC50s (our compound relative to DTG) against G140S/Q148H: 6.1
[3]
  FC G140S/Q148H: 9.3
[4]; EC50 compound / EC50 DTG
  ratio of the EC50s (our compound relative to DTG) against N117A: 2.4
[4]
  EC50: 1.2 ± 0.2 nM
  FC N117A: 0.3
[5]; EC50 compound / EC50 DTG
  ratio of the EC50s (our compound relative to DTG) against N117H: 2.3
[5]
  EC50: 5.6 ± 0.9 nM
  FC N117H: 1.5
[6]; EC50 compound / EC50 DTG
  ratio of the EC50s (our compound relative to DTG) against G118R: 13.1
[6]; Human immunodeficiency virus 1, read-out: EC50 values G118R
  EC50: 171 ± 3.2 nM
[7]; EC50 compound / EC50 DTG
  ratio of the EC50s (our compound relative to DTG) against S119R: 9.7
[7]
  EC50: 22.3 ± 1.7 nM
  FC S119R: 5.9
[8]; EC50 compound / EC50 DTG
  ratio of the EC50s (our compound relative to DTG) against Y143C: 28.1
[8]; Human immunodeficiency virus 1, read-out: EC50 values Y143C, single round infection, n = 4
  EC50: 39.3 ± 7.3 nM
[8]
  FC Y143C: 10.3
[9]; EC50 compound / EC50 DTG
  ratio of the EC50s (our compound relative to DTG) against Y143H: 3.6
[9]; [21]
  EC50: 7.9 ± 1 nM
[9]
  FC Y143H: 2.1
[10]; EC50 compound / EC50 DTG
  ratio of the EC50s (our compound relative to DTG) against P142A: 5.6
[10]
  EC50: 14.1 ± 0.3 nM
  FC P142A: 3.7
[11]; EC50 compound / EC50 DTG
  ratio of the EC50s (our compound relative to DTG) against P142H: 4.6
[11]
  EC50: 12.8 ± 2.9 nM
[11]; [22]
  FC P142H: 3.4
[12]; EC50 compound / EC50 DTG
  ratio of the EC50s (our compound relative to DTG) against P142S: 12.4
[12]
  EC50: 27.2 ± 4.4 nM
  FC P142S: 7.2
[13]; EC50 compound / EC50 DTG
  ratio of the EC50s (our compound relative to DTG) against S230R: 1.0
[13]
  EC50: 4.5 ± 1.5 nM
  FC S230R: 1.2
[14]; EC50 compound / EC50 DTG
  ratio of the EC50s (our compound relative to DTG) against R231G: 6.9
[14]
  EC50: 9.7 ± 2.4 nM
  FC R231G: 2.6
[15]; EC50 compound / EC50 DTG
  ratio of the EC50s (our compound relative to DTG) against R231K: 2.2
[15]; [23]
  EC50: 9.2 ± 2.1 nM
[15]; [22]
  FC R231K: 2.4
[16]
  EC50: 3.8 ± 1.2 nM
[17]
  EC50: 4.6 ± 2.2 nM
[18]
  EC50: 19 ± 6.9 nM
[19]
  EC50: 35.5 ± 15.9 nM

## C[C@@H]1CCO[C@H]2Cn3cc(C(=O)NCc4ccc(F)cc4F)c(=O)c(O)c3C(=O)N12 [DTG, dolutegravir, reference compound]
[1]
  FC Y143R: 2.7
[2]
  FC N155H: 2.3
[3]
  FC G140S/Q148H: 3.6
[4]
  EC50: 0.5 nM
  FC N117A: 0.3
[5]
  EC50: 2.4 nM
  FC N117H: 1.5
[7]
  EC50: 2.3 ± 0.6 nM
  FC S119R: 1.4
[8]
  FC Y143C: 0.9
[9]; [21]
  EC50: 2.2 ± 0.2 nM
[9]
  FC Y143H: 1.4
[9]; read-out: EC50 values Y143H, single round infection, n = 4
  EC50: < 3 nM
[10]
  EC50: 2.5 ± 0.5 nM
  FC P142A: 1.6
[11]
  EC50: 2.8 ± 0.7 nM
[12]
  EC50: 2.2 ± 0.1 nM
  FC P142S: 1.4
[13]
  EC50: 4.6 ± 0.7 nM
  FC S230R: 2.9
[14]
  EC50: 1.4 ± 0.2 nM
  FC R231G: 0.9
[15]; [23]
  EC50: 4.2 ± 0.2 nM
[15]; read-out: EC50 values R231K, single round infection, n = 4
  EC50: < 5 nM
[16]
  EC50: 1.6 ± 0.9 nM
[17]
  EC50: 4.3 ± 1.2 nM
[18]
  EC50: 3.6 ± 1.3 nM
[19]
  EC50: 5.8 ± 0.5 nM
[20]
  EC50: 13 ± 5 nM

Reference: PMC8205226, “HIV-1 Integrase Inhibitors with Modifications That Affect Their Potencies against Drug Resistant Integrase Mutants” (ACS Infectious Diseases, 2021)
